In ChEMBL document CHEMBL5352391, “New structural classes of antimalarials” (Eur J Med Chem, 2022):

Assays:
[1] = system: Plasmodium berghei; experiment: Antimalarial activity against Plasmodium berghei ANKA infected in mouse assessed as reduction in parasitemia by measuring effective dose at administrated orally for 4 days by flow cytometry analysis; assay type: functional; conditions: 96 h, route po, time 4 day
[2] = system: Plasmodium vinckei; experiment: Antimalarial activity against Plasmodium vinckei infected in Swiss OF1 mouse assessed as reduction in parasite growth by measuring its effective dose administrated orally for four consecutive days and measured on day 5 by Giemsa staining based microscopic analysis; assay type: functional; conditions: 120 h, route po, time 5 day
[3] = system: Plasmodium vinckei; experiment: Antimalarial activity against Plasmodium vinckei infected in Swiss OF1 mouse assessed as reduction of parasitaemia at 10 mg/kg,po administrated for four consecutive days and measured on day 5 by Giemsa staining based microscopic analysis; assay type: functional; set-up: scale not given: the % may be the effect or the level left; conditions: time 5 day
[4] = system: Plasmodium falciparum; experiment: Antimalarial activity against Plasmodium falciparum FCBR assessed as inhibition of parasite growth by SYTOX Green dye based high-throughput assay; assay type: functional, organism-based
[5] = molecular target: T1, Falcipain 2 (Plasmodium falciparum, UniProt Q9N6S8); experiment: Inhibition of Plasmodium falciparum recombinant His-tagged falcipain-2 expressed in Escherichia coli assessed as inhibition constant using Cbz-Phe-Arg-AMC as substrate by fluorescence spectrophotometer assay
T1 sequence (Q9N6S8 whole entry): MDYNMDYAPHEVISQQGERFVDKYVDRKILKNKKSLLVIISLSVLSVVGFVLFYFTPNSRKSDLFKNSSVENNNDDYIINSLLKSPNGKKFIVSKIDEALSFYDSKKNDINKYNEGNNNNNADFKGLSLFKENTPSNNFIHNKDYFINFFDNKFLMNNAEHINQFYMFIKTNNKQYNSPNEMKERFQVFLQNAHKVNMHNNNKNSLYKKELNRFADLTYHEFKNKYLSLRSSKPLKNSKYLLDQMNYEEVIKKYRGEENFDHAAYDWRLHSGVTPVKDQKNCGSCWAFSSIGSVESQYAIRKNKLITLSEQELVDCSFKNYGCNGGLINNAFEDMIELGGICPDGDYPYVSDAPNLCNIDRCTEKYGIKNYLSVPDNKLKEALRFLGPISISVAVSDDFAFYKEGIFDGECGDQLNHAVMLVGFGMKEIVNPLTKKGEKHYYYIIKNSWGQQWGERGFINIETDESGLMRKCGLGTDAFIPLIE

[6] = system: Plasmodium falciparum; experiment: Antiplasmodial activity against chloroquine resistant Plasmodium falciparum RKL9 infected in human erythrocyte assessed as inhibition of parasite growth incubated for 24 hrs by two fold serial dilution assay; assay type: functional, organism-based
[7] = system: Plasmodium berghei; experiment: Antimalarial activity against Plasmodium berghei ANKA infected in Swiss albino mouse assessed as reduction in parasitemia at 50 micromol/kg,po administrated for 4 days by Giemsa staining based microscopic analysis; assay type: functional; set-up: scale not given: the % may be the effect or the level left; conditions: dose 50 µmol/kg, time 4 day
[8] = system: Plasmodium falciparum; experiment: Antiplasmodial activity against chloroquine resistant Plasmodium falciparum Dd2 assessed as inhibition of parasite growth incubated for 72 hrs by LDH assay based spectrofluorometric analysis; assay type: functional, organism-based; conditions: Dd2, 72 h
[9] = system: Plasmodium falciparum; experiment: Antiplasmodial activity against Plasmodium falciparum 3D7 assessed as inhibition of parasite growth incubated for 72 hrs by LDH assay based spectrofluorometric analysis; assay type: functional, organism-based; conditions: 3D7, 72 h
[10] = system: Plasmodium falciparum; experiment: Additive antiplasmodial activity against Plasmodium falciparum NF54 gametocytes infected in human erythrocyte assessed as inhibition of parasite growth by measuring minimum inhibitory concentration incubated for 48 hrs in presence of mefloquine by SYBR Green dye based fluorescence assay; assay type: functional
[11] = system: Plasmodium falciparum; experiment: Additive antiplasmodial activity against Plasmodium falciparum NF54 gametocytes infected in human erythrocyte assessed as inhibition of parasite growth by measuring minimum inhibitory concentration incubated for 48 hrs in presence of chloroquine by SYBR Green dye based fluorescence assay; assay type: functional
[12] = system: Plasmodium falciparum; experiment: Additive antiplasmodial activity against Plasmodium falciparum NF54 gametocytes infected in human erythrocyte assessed as inhibition of parasite growth by measuring minimum inhibitory concentration incubated for 48 hrs in presence of lumefantrine by SYBR Green dye based fluorescence assay; assay type: functional
[13] = system: Plasmodium falciparum; experiment: Antiplasmodial activity against Plasmodium falciparum NF54 gametocytes infected in human erythrocyte assessed as inhibition of parasite growthVincubated for 48 hrs by SYBR Green dye based fluorescence assay; assay type: functional, organism-based
[14] = system: Plasmodium falciparum; experiment: Antiplasmodial activity against Plasmodium falciparum TM91-C23 assessed as inhibition of parasite growth incubated for 72 hrs by SYBR Green I dye based fluorescence assay; assay type: functional, organism-based; conditions: TM91-C23, 72 h
[15] = system: Plasmodium falciparum; experiment: Antiplasmodial activity against Plasmodium falciparum W2 assessed as inhibition of parasite growth incubated for 72 hrs by SYBR Green I dye based fluorescence assay; assay type: functional, organism-based; conditions: W2, 72 h
[16] = system: Plasmodium falciparum; experiment: Antiplasmodial activity against Plasmodium falciparum TM90-C2B assessed as inhibition of parasite growth incubated for 72 hrs by SYBR Green I dye based fluorescence assay; assay type: functional, organism-based
[17] = system: Plasmodium falciparum; experiment: Antiplasmodial activity against Plasmodium falciparum TM90-C2A assessed as inhibition of parasite growth incubated for 72 hrs by SYBR Green I dye based fluorescence assay; assay type: functional, organism-based
[18] = system: Plasmodium falciparum; experiment: Antiplasmodial activity against chloroquine resistant Plasmodium falciparum K1 infected in human RBC assessed as inhibition of parasite growth incubated for 48 hrs by optical microscopy analysis; assay type: functional, organism-based; conditions: K1, Erythrocyte
[19] = system: Plasmodium falciparum; experiment: Antiplasmodial activity against chloroquine sensitive Plasmodium falciparum 3D7 assessed as inhibition of parasite growth incubated for 48 hrs by SYBR green I dye based fluorescence assay; assay type: functional, organism-based; conditions: 3D7, 48 h
[20] = system: Plasmodium falciparum; experiment: Antiplasmodial activity against chloroquine resistant Plasmodium falciparum W2 assessed as inhibition of parasite growth incubated for 48 hrs by SYBR green I dye based fluorescence assay; assay type: functional, organism-based; conditions: W2, 48 h
[21] = Selectivity index, ratio of CC50 for cytotoxicity against human HepG2 cells by MTT assay to IC50 for antiplasmodial activity against chloroquine sensitive Plasmodium falciparum 3D7 by SYBR green I dye based fluorescence assay; assay type: toxicity, cell-based; conditions: read-out: Ratio CC50/IC50
[22] = Selectivity index, ratio of CC50 for cytotoxicity against human HepG2 cells by MTT assay to IC50 for antiplasmodial activity against chloroquine resistant Plasmodium falciparum W2 by SYBR green I dye based fluorescence assay; assay type: toxicity, cell-based; conditions: read-out: Ratio CC50/IC50

CC(=O)N1CCN(c2ccc(CN(C(=O)/C=C/c3ccc(C(F)(F)F)cc3)[C@@H](Cc3ccccc3)C(=O)N3CCN(Cc4ccc(N(C)CCO)cc4)CC3)cc2)CC1
ED90 [1]: 54.4 mg/kg

CO/N=C(/N)c1ccc(-n2cc(-c3cccc(/C(N)=N\OC)c3)nn2)cc1
ED50 [2]: 5 mg/kg
Activity [3]: 100%

N=C(NC(=O)OCc1ccccc1)NC(=O)c1ccc(C(=O)NCc2ccc(NC(=O)OCc3ccccc3)cc2)o1
IC50 [4]: 1060 nM
Ki [5]: 1080 nM

O=C(O)c1cn(-c2ccc(Cl)cc2)nc1-c1ccccc1
IC50 [6]: 33 nM
Activity [7]: 97%

C/C1=C\[C@H](C)CC[C@@H](O)/C(C)=C/[C@H](C)C[C@@H](C)CC[C@@H]([C@@H](C)C(=O)O)OC(=O)[C@@H](C)C1
IC50 [8]: 32 nM
IC50 [9]: 13 nM

C[n+]1c2ccccc2cc2[n-]c3ccccc3c21 [CRYPTOLEPINE]
MIC50 [10]: 4.18 nM
MIC50 [11]: 1.46 nM
MIC50 [12]: 1.02 nM
IC50 [13]: 19.6 nM

C/C1=C\C(=O)O[C@@H](C(C)(C)C)CCC[C@@H](O)CCC[C@H](O)CCC[C@H](O)CCC[C@@H](O)C[C@H](O)C[C@@H](O)CCC[C@H](O)CCC[C@H](O)C[C@@H](O)CCCCC1
IC50 [14]: 270 nM
IC50 [15]: 140 nM
IC50 [16]: 90 nM
IC50 [17]: 80 nM

c1ccc(CCC2(CCc3ccccc3)OOC(CCc3ccccc3)(CCc3ccccc3)OO2)cc1
IC50 [18]: 1600 nM

COc1ccc2c(c1)nc(-c1cccc(CNCCCN3CCN(CCCNCc4cccc(-c5nc6ccc(OC)cc6n6cccc56)c4)CC3)c1)c1cccn12
IC50 [19]: 40 nM
IC50 [20]: 170 nM
selectivity ratio [21]: 39.2

c1cc(CNCCCN2CCN(CCCNCc3cccc(-c4nc5ccccc5n5cccc45)c3)CC2)cc(-c2nc3ccccc3n3cccc23)c1
IC50 [19]: 370 nM
IC50 [20]: 50 nM
selectivity ratio [22]: 40.6
